Measurements as given in PubChem BioAssay AID248 (DTP/NCI, 2004).
Values joined by “and” are separate entries in the source; they are usually repeats but may differ in a detail not shown here. Equal values may be shown once. Inconclusive results and toxic doses are left out. Rule as the data show it: active = T/C of 150% or more; inactive = T/C below 125%.

Tested on: L1210 leukemia ip in BDF1 mice, survival T/C
Experiment: NCI In Vivo Anticancer Drug Screen. Data for tumor model L1210 Leukemia (intraperitoneal) in B6D2F1 (BDF1) mice
Conditions: endpoint: mean survival time, higher = longer survival
Summary of the method: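 In this screen, tumor-bearing mice given compound are compared to those given vehicle, and their survival values are reported as a treated-to-control quotient.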

[1] = dose: 50.0 mg/kg/injection, schedule: Q01DX009 (ip), vehicle: Klucel (hydroxypropylcellulose) (HPC)
[2] = dose: 100.0 mg/kg/injection, schedule: Q01DX009 (ip), vehicle: Klucel (hydroxypropylcellulose) (HPC)
[3] = dose: 200.0 mg/kg/injection, schedule: Q01DX009 (ip), vehicle: Klucel (hydroxypropylcellulose) (HPC)
[4] = dose: 50.0 mg/kg/injection, schedule: Q04DX003 (ip), vehicle: Klucel (hydroxypropylcellulose) (HPC)
[5] = dose: 100.0 mg/kg/injection, schedule: Q04DX003 (ip), vehicle: Klucel (hydroxypropylcellulose) (HPC)
[6] = dose: 200.0 mg/kg/injection, schedule: Q04DX003 (ip), vehicle: Klucel (hydroxypropylcellulose) (HPC)
[7] = dose: 400.0 mg/kg/injection, schedule: Q04DX003 (ip), vehicle: Klucel (hydroxypropylcellulose) (HPC)
[8] = dose: 100.0 mg/kg/injection, schedule: Q04DX002 (ip), vehicle: Klucel (hydroxypropylcellulose) (HPC)
[9] = dose: 200.0 mg/kg/injection, schedule: Q04DX002 (ip), vehicle: Klucel (hydroxypropylcellulose) (HPC)
[10] = dose: 400.0 mg/kg/injection, schedule: Q04DX002 (ip), vehicle: Klucel (hydroxypropylcellulose) (HPC)
[11] = dose: 100.0 mg/kg/injection, schedule: Q01DX009 (ip), vehicle: saline with Tween-80
[12] = dose: 200.0 mg/kg/injection, schedule: Q01DX009 (ip), vehicle: saline with Tween-80
[13] = dose: 100.0 mg/kg/injection, schedule: Q01DX001 (ip), vehicle: carboxymethylcellulose (CMC)
[14] = dose: 200.0 mg/kg/injection, schedule: Q01DX001 (ip), vehicle: carboxymethylcellulose (CMC)
[15] = dose: 100.0 mg/kg/injection, schedule: Q01DX001 (ip), vehicle: saline
[16] = dose: 100.0 mg/kg/injection, schedule: Q04DX003 (ip), vehicle: saline
[17] = dose: 200.0 mg/kg/injection, schedule: Q01DX001 (ip), vehicle: saline
[18] = dose: 200.0 mg/kg/injection, schedule: Q04DX003 (ip), vehicle: saline
[19] = dose: 400.0 mg/kg/injection, schedule: Q01DX001 (ip), vehicle: carboxymethylcellulose (CMC)
[20] = dose: 400.0 mg/kg/injection, schedule: Q04DX003 (ip), vehicle: saline

Measured: T/C

CCOC(=O)c1cnc2c(ccc3cc(OC)ccc32)c1NCCCN(CC)CC
inactive: [1] 105 % of control | [2] 108 % of control | [3] 94 % of control

COc1cccc(O)c1/C=C/[N+](=O)[O-]
inactive: [1] 104 % of control | [2] 102 % of control

NC(=S)c1cccc(S(N)(=O)=O)c1
inactive: dose: 100.0 mg/kg/injection, schedule: Q01DX001 (ip), vehicle: Klucel (hydroxypropylcellulose) (HPC) 100 % of control | dose: 200.0 mg/kg/injection, schedule: Q01DX001 (ip), vehicle: Klucel (hydroxypropylcellulose) (HPC) 103 % of control | dose: 400.0 mg/kg/injection, schedule: Q01DX001 (ip), vehicle: Klucel (hydroxypropylcellulose) (HPC) 103 % of control

CC(C)/C=C(\C#N)C(=O)O
inactive: dose: 12.5 mg/kg/injection, schedule: Q04DX003 (ip), vehicle: Klucel (hydroxypropylcellulose) (HPC) 97 % of control | dose: 25.0 mg/kg/injection, schedule: Q01DX009 (ip), vehicle: Klucel (hydroxypropylcellulose) (HPC) 95 % of control | dose: 25.0 mg/kg/injection, schedule: Q04DX003 (ip), vehicle: Klucel (hydroxypropylcellulose) (HPC) 101 % of control | [1] 95 % of control | [4] 98 % of control

CCOc1ccccc1NC(=O)Nc1ccccc1C
inactive: [2] 102 % of control | [5] 101 % of control | [3] 100 % of control | [6] 105 % of control | dose: 400.0 mg/kg/injection, schedule: Q01DX009 (ip), vehicle: Klucel (hydroxypropylcellulose) (HPC) 94 % of control | [7] 103 % of control

O=S(=O)(CCS(=O)(=O)c1ccccc1)c1ccccc1
inactive: dose: 50.0 mg/kg/injection, schedule: Q01DX009 (ip), vehicle: saline 94 % of control | [8] 92 % of control | dose: 150.0 mg/kg/injection, schedule: Q01DX009 (ip), vehicle: saline 97 % of control | [9] 92 % of control | [10] 88 % of control

O=C(O)CC(SC(CC(=O)O)C(F)(F)C(F)(F)C(F)(F)F)C(F)(F)C(F)(F)C(F)(F)F (stereo not drawn)
inactive: [11] 94 % of control | [5] 108 % of control | [12] 97 % of control | [6] 97 % of control | dose: 400.0 mg/kg/injection, schedule: Q01DX009 (ip), vehicle: saline with Tween-80 94 % of control | [7] 88 % of control

O=C1c2nc3ccccc3cc2CN1Cc1ccccc1
inactive: dose: 10.0 mg/kg/injection, schedule: Q04DX003 (ip), vehicle: alcohol 97 % of control | dose: 20.0 mg/kg/injection, schedule: Q04DX003 (ip), vehicle: alcohol 96 % of control | dose: 40.0 mg/kg/injection, schedule: Q04DX003 (ip), vehicle: alcohol 96 % of control | dose: 80.0 mg/kg/injection, schedule: Q04DX003 (ip), vehicle: alcohol 97 % of control | dose: 160.0 mg/kg/injection, schedule: Q04DX003 (ip), vehicle: alcohol 92 % of control

c1cc[c]([Sn]([S]c2nc3ccccc3s2)([c]2ccccc2)[c]2ccccc2)cc1
inactive: dose: 5.0 mg/kg/injection, schedule: Q04DX002 (ip), vehicle: saline with Tween-80 104 % of control | dose: 10.0 mg/kg/injection, schedule: Q04DX002 (ip), vehicle: saline with Tween-80 97 % of control | dose: 20.0 mg/kg/injection, schedule: Q04DX002 (ip), vehicle: saline with Tween-80 97 % of control

COc1ccc(C2CCCCCC2OC(=O)c2ccc([N+](=O)[O-])cc2)c(OC)c1OC (stereo not drawn)
inactive: dose: 100.0 mg/kg/injection, schedule: Q01DX001 (ip), vehicle: other 96 % of control | dose: 200.0 mg/kg/injection, schedule: Q01DX001 (ip), vehicle: other 106 % of control | dose: 400.0 mg/kg/injection, schedule: Q01DX001 (ip), vehicle: other 96 % of control

Cc1cc(OC(=O)Nc2ccc(F)cc2)c(C(C)C)cc1Cl
inactive: dose: 50.0 mg/kg/injection, schedule: Q01DX001 (ip), vehicle: carboxymethylcellulose (CMC) 90 % of control | dose: 50.0 mg/kg/injection, schedule: Q01DX009 (ip), vehicle: carboxymethylcellulose (CMC) 99 % of control and 101 % of control | dose: 50.0 mg/kg/injection, schedule: Q04DX002 (ip), vehicle: carboxymethylcellulose (CMC) 93 % of control and 96 % of control | [13] 103 % of control | dose: 100.0 mg/kg/injection, schedule: Q01DX009 (ip), vehicle: carboxymethylcellulose (CMC) 96 % of control and 99 % of control | dose: 100.0 mg/kg/injection, schedule: Q04DX002 (ip), vehicle: carboxymethylcellulose (CMC) 100 % of control and 106 % of control | [14] 92 % of control | dose: 200.0 mg/kg/injection, schedule: Q01DX009 (ip), vehicle: carboxymethylcellulose (CMC) 94 % of control and 95 % of control | dose: 200.0 mg/kg/injection, schedule: Q04DX002 (ip), vehicle: carboxymethylcellulose (CMC) 95 % of control and 100 % of control

Cc1c(NC(=O)Nc2cc(C(F)(F)F)ccc2Cl)c(=O)n(-c2ccccc2)n1C
inactive: [8] 96 % of control | [9] 96 % of control | [10] 105 % of control

CC(NC(=O)OCc1ccccc1)C(=O)Oc1cc(Cl)c(Cl)cc1Cl (stereo not drawn)
inactive: [15] 92 % of control | dose: 100.0 mg/kg/injection, schedule: Q01DX009 (ip), vehicle: saline 95 % of control | [16] 91 % of control | [17] 97 % of control | dose: 200.0 mg/kg/injection, schedule: Q01DX009 (ip), vehicle: saline 93 % of control | [6] 87 % of control | [18] 91 % of control | dose: 400.0 mg/kg/injection, schedule: Q01DX001 (ip), vehicle: saline 92 % of control | dose: 400.0 mg/kg/injection, schedule: Q01DX009 (ip), vehicle: saline 92 % of control

c1ccc2c[n+](Cc3nc4ccccc4[nH]3)ccc2c1
inactive: dose: 75.0 mg/kg/injection, schedule: Q01DX001 (ip), vehicle: saline 101 % of control

COc1ncnc(Cl)c1[N+](=O)[O-]
inactive: [4] 92 % of control | [5] 92 % of control and 86 % of control | [6] 97 % of control and 91 % of control

Cc1cc2c(cc1C)NC(=O)CC(c1ccccc1)=N2
inactive: [13] 98 % of control | [14] 93 % of control | [19] 98 % of control

O=C(NC(CSC1CCCCO1)C(=O)O)OCc1ccccc1 (stereo not drawn) (tested in a mixture with another compound)
inactive: dose: 50.0 mg/kg/injection, schedule: Q01DX001 (ip), vehicle: saline 106 % of control | [15] 101 % of control | [17] 97 % of control

COC(=O)Nc1nc2cc(Cl)c(Cl)cc2[nH]1
inactive: [13] 94 % of control | [14] 100 % of control | [19] 100 % of control

CCCCCCCCCCCCC/C=N/Nc1ccc([N+](=O)[O-])cc1[N+](=O)[O-]
inactive: dose: 50.0 mg/kg/injection, schedule: Q01DX009 (ip), vehicle: saline with Tween-80 100 % of control | [11] 93 % of control | [12] 93 % of control

Oc1ccc(C2CC3CCC2C3)cc1 (stereo not drawn)
inactive: dose: 100.0 mg/kg/injection, schedule: Q04DX003 (ip), vehicle: saline + alcohol 98 % of control | dose: 200.0 mg/kg/injection, schedule: Q04DX003 (ip), vehicle: saline + alcohol 90 % of control | dose: 400.0 mg/kg/injection, schedule: Q04DX003 (ip), vehicle: saline + alcohol 96 % of control

CCCCOC(=O)C(O)C(C)(Cl)c1ccccc1 (stereo not drawn)
inactive: [8] 106 % of control | [9] 103 % of control | [10] 106 % of control

BrC#CC1=CCCCC1
inactive: dose: 100.0 mg/kg/injection, schedule: Q01DX009 (ip), vehicle: acetone 88 % of control | [16] 105 % of control | dose: 200.0 mg/kg/injection, schedule: Q01DX009 (ip), vehicle: acetone 86 % of control | [18] 103 % of control | dose: 400.0 mg/kg/injection, schedule: Q01DX009 (ip), vehicle: acetone 108 % of control | [20] 107 % of control

O=C(O)CN1C(=O)C2C3CCC(O3)C2C1=O (stereo not drawn)
inactive: [16] 107 % of control | [18] 98 % of control | [20] 98 % of control
